Columns and labels:
Experiment in all cases: relative viability (nuclei count vs DMSO), 5 days (fraction); higher = more cells survive
Decitabine + Trametinib = compound: Nc1ncn([C@H]2C[C@H](O)[C@@H](CO)O2)c(=O)n1 [Decitabine] + CC(=O)Nc1cccc(-n2c(=O)n(C3CC3)c(=O)c3c(Nc4ccc(I)cc4F)n(C)c(=O)c(C)c32)c1 [Trametinib] (partner 0.02 µM)
Outline: (§1)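 Lung cancer cell lines were pin-tool dosed in 1536-well plates on the day after seeding, with either a lone drug or a fixed anchor-drug dose plus five library-drug doses (not always all listed) in √10 steps. Nuclei were counted on 4× images after 5 days. Relative viability is the ratio of treated-well to vehicle-well nuclei counts, with each value a median of duplicate plates.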

Decitabine + Olaparib = compound: Nc1ncn([C@H]2C[C@H](O)[C@@H](CO)O2)c(=O)n1 [Decitabine] + O=C(c1cc(Cc2n[nH]c(=O)c3ccccc23)ccc1F)N1CCN(C(=O)C2CC2)CC1 [Olaparib] (partner 8 µM)
Outline: as §1

Cediranib + Olaparib = compound: COc1cc2c(Oc3ccc4[nH]c(C)cc4c3F)ncnc2cc1OCCCN1CCCC1 [Cediranib] + O=C(c1cc(Cc2n[nH]c(=O)c3ccccc23)ccc1F)N1CCN(C(=O)C2CC2)CC1 [Olaparib] (partner 8 µM)
Outline: as §1

Cediranib + Pemetrexed = compound: COc1cc2c(Oc3ccc4[nH]c(C)cc4c3F)ncnc2cc1OCCCN1CCCC1 [Cediranib] + Nc1nc2[nH]cc(CCc3ccc(C(=O)N[C@@H](CCC(=O)O)C(=O)O)cc3)c2c(=O)[nH]1 [Pemetrexed] (partner 0.2 µM)
Outline: as §1

Cell Line	relative viability (Decitabine + Trametinib; first compound 0.1265 µM)	relative viability (Decitabine + Trametinib; first compound 0.4 µM)	relative viability (Decitabine + Trametinib; first compound 1.265 µM)	relative viability (Decitabine + Trametinib; first compound 4 µM)	relative viability (Decitabine + Olaparib; first compound 0.1265 µM)	relative viability (Decitabine + Olaparib; first compound 0.4 µM)	relative viability (Decitabine + Olaparib; first compound 1.265 µM)	relative viability (Decitabine + Olaparib; first compound 4 µM)	relative viability (Cediranib + Olaparib; first compound 0.04 µM)	relative viability (Cediranib + Olaparib; first compound 0.4 µM)	relative viability (Cediranib + Olaparib; first compound 1.265 µM)	relative viability (Cediranib + Olaparib; first compound 4 µM)	relative viability (Cediranib + Pemetrexed; first compound 0.04 µM)	relative viability (Cediranib + Pemetrexed; first compound 0.4 µM)	relative viability (Cediranib + Pemetrexed; first compound 1.265 µM)	relative viability (Cediranib + Pemetrexed; first compound 4 µM)	relative viability (Decitabine + Trametinib; first compound 0.04 µM)	relative viability (Decitabine + Olaparib; first compound 0.04 µM)	relative viability (Cediranib + Olaparib; first compound 0.1265 µM)	relative viability (Cediranib + Pemetrexed; first compound 0.1265 µM)
PC-3 [JPC-3]	0.7	0.498	0.485	0.657	0.762	0.368	0.465	0.455	1.23	1.09	1.21	0.834	1.03	1.08	1.17	0.96				
HCC-44	0.991	0.833	0.819	0.75	0.738	0.627	0.739	0.757	0.966	0.963	0.932	0.974	0.695	0.637	0.656	0.682	1.04	0.808	0.894	0.589
NCI-H2405	0.732	0.645	0.493	0.407	0.467	0.374	0.313	0.312	0.888	0.766	0.888	0.876	1.02	0.997	1.1	1.16	0.575	0.613	0.897	1.01
LXF-289	0.519	0.38	0.312	0.314	0.255	0.203	0.157	0.128	1.09	1.03	1	1.15	1.1	0.8	0.936	0.863	0.647	0.302		
LOU-NH91	0.831	0.78	0.707	0.757	0.742	0.649	0.577	0.601	0.972	0.88	0.908	0.86	0.447	0.357	0.337	0.36	0.661	0.667	0.936	0.347
A549					0.112	0.049	0.0246	0.0404	0.353	0.302	0.333	0.473						0.15	0.23	
H3255	0.686	0.506	0.5	0.46	0.469	0.415	0.43	0.378	0.524	0.564	0.643	0.542	0.588	0.567	0.533	0.54		0.487	0.503	0.542
NCI-H1395	0.906	0.828	0.655	0.607	0.432	0.465	0.438	0.418	0.472	0.474	0.541	0.42	0.915	0.825	0.76	0.801	0.793	0.518	0.448	0.985
LC-2-ad	0.837	0.763	0.651	0.573	0.402	0.397	0.343	0.274	0.737	0.664	0.732	0.839	0.289	0.278	0.298	0.275	0.778	0.441	0.689	0.3
NCI-H838	0.397	0.237	0.283	0.279	0.273	0.261	0.193	0.199	0.786	0.734	0.722	0.756	0.252	0.229	0.257	0.231	0.476	0.26	0.764	0.241
Calu-6					0.285	0.182	0.166	0.14	0.592	0.599	0.582	0.56						0.234	0.566	
NCI-H1648	0.462	0.452	0.379	0.355	0.516	0.484	0.424	0.301	0.519	0.901	1.2	1.31	0.563	0.617	0.634	0.372	0.442	0.679	0.824	0.551
LCLC-97TM1	0.213	0.183	0.144	0.155	0.124	0.0895	0.0603	0.335	0.468	0.384	0.301	0.504	0.205	0.154	0.218	0.177	0.219	0.0932		
HCC-15	0.399	0.353	0.338	0.313	0.363	0.253	0.178	0.168	0.706	0.705	0.759	0.759	0.209	0.226	0.218	0.22	0.4	0.472		0.222
CAL-12T	0.361	0.217	0.265	0.294	0.412	0.257	0.266	0.227	0.815	0.647	0.74	0.786	1.03	1.14	1.13	1.03	0.303	0.438	0.646	1.29
NCI-H727	0.377	0.344	0.372	0.363	0.54	0.685	0.55	0.481	0.656	0.684	0.728	0.73					0.396	0.643	0.679	
ABC-1					0.616	0.77	0.473	0.573	0.875	0.823	1.14	0.726							0.997	
NCI-H2023	0.464	0.296	0.196	0.197	0.15	0.126	0.0911	0.0823	0.511	0.47	0.445	0.527	0.283	0.254	0.233	0.248	0.473	0.137	0.445	0.274
NCI-H2342	1.03	0.88	0.606	0.72	0.368	0.433	0.351	0.249	0.419	0.46	0.455	0.458	0.764	0.805	0.681	0.797	0.959	0.539	0.398	0.808

Cell Line	relative viability (Decitabine + Trametinib; first compound 0.1265 µM)	relative viability (Decitabine + Trametinib; first compound 0.4 µM)	relative viability (Decitabine + Trametinib; first compound 1.265 µM)	relative viability (Decitabine + Trametinib; first compound 4 µM)	relative viability (Decitabine + Olaparib; first compound 0.1265 µM)	relative viability (Decitabine + Olaparib; first compound 0.4 µM)	relative viability (Decitabine + Olaparib; first compound 1.265 µM)	relative viability (Decitabine + Olaparib; first compound 4 µM)	relative viability (Cediranib + Olaparib; first compound 0.04 µM)	relative viability (Cediranib + Olaparib; first compound 0.4 µM)	relative viability (Cediranib + Olaparib; first compound 1.265 µM)	relative viability (Cediranib + Olaparib; first compound 4 µM)	relative viability (Cediranib + Pemetrexed; first compound 0.04 µM)	relative viability (Cediranib + Pemetrexed; first compound 0.4 µM)	relative viability (Cediranib + Pemetrexed; first compound 1.265 µM)	relative viability (Cediranib + Pemetrexed; first compound 4 µM)	relative viability (Decitabine + Trametinib; first compound 0.04 µM)	relative viability (Decitabine + Olaparib; first compound 0.04 µM)	relative viability (Cediranib + Olaparib; first compound 0.1265 µM)	relative viability (Cediranib + Pemetrexed; first compound 0.1265 µM)
SW 1573	0.638	0.368	0.27	0.301	0.239	0.17	0.127	0.111	0.522	0.504	0.42	0.488	0.981	0.844	0.826	0.908	0.44	0.257	0.485	0.954
NCI-H1993	0.431	0.394	0.432	0.511	0.614	0.625	0.44	0.473		0.847	1.1	1.09		0.627	0.49	0.585	0.491	0.647	0.933	0.581
NCI-H661	0.577	0.508	0.392	0.404	0.459	0.409	0.345	0.338	0.763	0.713	0.703	0.817	0.974	0.935	0.891	1.03	0.502	0.56	0.785	0.927
NCI-H520	0.349	0.424	0.307	0.266	0.297	0.251	0.188	0.167	0.365	0.355	0.298	0.3	0.668	0.623	0.602	0.563	0.529	0.201	0.353	0.789
ChaGo-K-1	0.628	0.5	0.434	0.62	0.28	0.222	0.198	0.242	0.403	0.403	0.424	0.41	0.262	0.297	0.252	0.263	0.729	0.28	0.307	0.261
NCI-H2085	0.451	0.394	0.364	0.308	0.42	0.425	0.324	0.344	0.737	0.745	0.8	0.746	0.892	0.864	0.812	0.9	0.514	0.46	0.729	1.06
NCI-H1651	0.757	0.692	0.622	0.487	0.163	0.12	0.144	0.118	0.189	0.179	0.166	0.185	0.601	0.592	0.497	0.53	0.787	0.136	0.18	0.619
RERF-LC-KJ	0.885	0.558	0.594	0.636	0.608		0.448	0.495	0.841	0.915	0.998	0.979	0.488	0.444	0.514	0.479	0.808	0.615	0.866	0.346
NCI-H1755	0.743	0.688	0.564	0.488	0.609	0.43	0.359	0.365	0.918	0.867	0.836	0.955	0.432	0.422	0.437	0.449	0.653	0.648	0.791	0.391
SK-MES-1	0.595	0.453	0.345	0.382	0.362	0.299	0.179	0.244	0.728	0.642	0.685	0.899	1.02	0.901	0.964	1.03	0.485	0.288	0.73	1.01
NCI-H2126	0.545	0.474	0.422	0.44	0.546	0.459	0.42	0.85	0.944	0.912	0.802	0.957	0.701	0.627	0.725	0.748	0.576	0.63	0.92	0.595
EPLC-272H	0.29		0.251	0.234	0.255		0.15	0.337	0.896	0.8	0.964	0.688	0.361	0.375	0.37	0.282	0.293	0.32	0.831	0.345
NCI-H1975	0.272	0.219	0.233	0.219	0.266	0.232	0.193	0.174	0.841	0.768	0.773	0.773	0.269	0.277	0.301	0.284	0.284	0.292	0.752	0.314
NCI-H1703					0.21	0.287	0.145	0.166	0.389	0.173	0.163	0.243						0.21	0.388	
NCI-H1563													0.885	0.843	0.675	0.872				0.879
IA-LM					0.197	0.139	0.129	0.129	0.993	0.824	0.867	1.02						0.288	0.848	
EBC-1					0.197	0.187	0.157	0.18	0.715	0.668	0.786	0.88						0.318	0.744	
NCI-H1299					0.962	0.884	0.655	0.578	0.999	0.92	0.949	0.97						0.963	0.96	

From the supplement of paper PMC10307832
